Each structure is given as a SMILES string.

The test system of assay [1] is 3D7 P. falciparum strain. As to the kind of experiment: parasite proliferation assay in infected red blood cells (SYBR Green I). Type of assay: cell-based, Plasmodium falciparum. The settings on record: Plasmodium falciparum, 3D7, Erythrocyte, 3D7 strain; read-out: EC50 3D7 strain. In outline:
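P. falciparum 3D7 grown in O+ human erythrocytes to 3–8% parasitemia and exposed to compounds. Proliferation read as the increase in parasite DNA. Detection used SYBR Green I in saponin/triton-X/EDTA lysis buffer, with overnight lysis at room temperature.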

Assay [2] relates to W2 strain. As to the kind of experiment: parasite proliferation assay in infected red blood cells (SYBR Green I), W2 strain. Type of assay: cell-based, Plasmodium falciparum. The settings on record: Plasmodium falciparum, Erythrocyte. From the text:
(§1) Compounds of the invention can be assayed to measure their capacity to inhibit proliferation of parasitemia in infected red blood cells. The proliferation is quantified by the addition of SYBR Green I (INVITROGEN)® dye which has a high affinity for double stranded DNA.

The subject of assay [3] is W2 strain. The description is as above. The assay is classed as cell-based. The settings on record: Erythrocyte.
Text: as §1

What is called EC50 is the concentration that produces a half-maximal response. `Cc1ccc(Nc2c(-c3ccncc3)nc3n2CCN(C(=O)C(C)(C)N)C3)cc1` [Compound 398]: the results for the EC50 in assay [1] and in assay [2] were 2730 nM and 2680 nM, respectively.

For the compound `Cc1ccc(Nc2c(-c3ccc(F)cc3)nc3n2CCN(C(=O)CNC(C)(C)C)C3)cc1` [Compound 399], the EC50 was 220 nM in assay [1] and 196 nM in assay [2].

With `CN[C@@H](Cc1ccc(Cl)cc1)C(=O)N1CCn2c(nc(-c3ccc(F)cc3)c2Nc2ccc(C)cc2)C1` [Compound 400], the EC50 in assay [1] amounted to 180 nM; in assay [2], 105 nM.

With `Cc1ccc(Nc2c(-c3ccc(F)cc3)nc3n2CCN(C(=O)[C@@H](N)CC2CC2)C3)cc1` [Compound 401], the EC50 amounted to 20 nM in assay [1] and 12 nM in assay [2].

With `Cc1ccc(Nc2c(-c3ccc(F)cc3)nc3n2CCN(C(=O)[C@@H](C)NCc2ccccc2)C3)cc1` [Compound 402], the EC50 in assay [1] is 120 nM; in assay [2], 122 nM.

Consider `Cc1ccc(Nc2c(-c3ccc(F)cc3)nc3n2CCN(C(=O)[C@H](C)NCc2ccccc2)C3)cc1` [Compound 403], for which the EC50 in assay [1] stood at 510 nM; in assay [2] it was 543 nM.

Take `Cc1ccc(Nc2c(-c3ccc(F)cc3)nc3n2CCN(C(=O)[C@@H](N)C2CC2)C3)cc1` [Compound 404]: the results for the EC50 in assay [1] and in assay [2] were 20 nM and 12 nM, respectively.

Turning to `Cc1ccc(Nc2c(-c3ccc(F)c(F)c3)nc3n2CCN(C(=O)[C@H](C)N)C3)cc1` [Compound 406], the EC50 is 60 nM in assay [1] and 40 nM in assay [2].

With `Cc1ccc(Nc2c(-c3ccc(F)cc3)nc3n2CCN(C(=O)C(C)Nc2ccc(C)cc2)C3)cc1` (stereo not drawn) [Compound 407], the figures for the EC50 in assay [1] and in assay [2] were 710 nM and 523 nM, respectively.

Turning to `Cc1ccc(Nc2c(-c3cc(F)ccc3F)nc3n2CCN(C(=O)C(C)(C)N)C3)cc1` [Compound 408], the 50% effective concentration (EC50) in assay [1] turned out to be 930 nM; in assay [2], 908 nM.

`Cc1ccc(Nc2c(-c3ccc(F)cc3)nc3n2CCN(C(=O)CN)C3(C)C)cc1` [Compound 409]: the EC50 is 10 nM in assay [1] and 6 nM in assay [2].

For `CC(C)(N)C(=O)N1CCn2c(nc(-c3ccc(F)cc3)c2Nc2ccc(Cl)c(Cl)c2)C1` [Compound 410], the EC50 stood at 60 nM in assay [1] and 37 nM in assay [2].

As for `Fc1ccc(-c2nc3n(c2Nc2ccc(Cl)c(Cl)c2)CCNC3)cc1` [Compound 411], the EC50 in assay [1] was determined as 140 nM; in assay [2] it was 106 nM.

For `CCN(c1ccc(Cl)c(F)c1)c1c(-c2ccc(F)cc2)nc2n1CCNC2` [Compound 413], the EC50 in assay [1] was found to be 180 nM; in assay [2], 131 nM.

`CN[C@@H](C(=O)N1CCn2c(nc(-c3ccc(F)cc3)c2Nc2ccc(C)cc2)C1)C(C)C` [Compound 414]: the EC50 in assay [1] is 160 nM; in assay [2], 156 nM.

On to `Cc1ccc(Nc2c(-c3ccc(F)cc3)nc3n2CCNC3(C)C)cc1` [Compound 415], for which the EC50 in assay [1] was 10 nM; in assay [2] it was 13 nM.

As for `CC1(C)NCCn2c1nc(-c1ccc(F)cc1)c2Nc1ccc(Cl)cc1` [Compound 416], the EC50 in assay [1] was 10 nM; in assay [2], 16 nM.

`CC1(C)c2nc(-c3ccc(F)cc3)c(Nc3cc(F)c(F)c(F)c3)n2CCN1C(=O)CN` [Compound 554] came in with an EC50 in assay [2] of 7 nM.

Turning to `CC1(C)c2nc(-c3ccc(F)cc3)c(Nc3ccc(F)cc3)n2CCN1C(=O)CNC(=O)CCNC(=O)CCc1ccc2oc3ccccc3c2c1` [Compound 729], the EC50 in assay [1] is over 10000 nM; in assay [3] (Plasmodium falciparum), 6290 nM.

Take `CC1(C)c2nc(-c3ccc(F)cc3)c(Nc3ccc(F)cc3)n2CCN1C(=O)CNCCCNC(=O)CCc1ccccc1` [Compound 730, N-(3-(2-(2-(4-fluorophenyl)-3-(4-fluorophenylamino)-8,8-dimethyl-5,6-dihydroimidazo[1,2-a]pyrazin-7 (8H)-yl)-2-oxoethylamino)propyl)-3-phenylpropanamide]: the results for the EC50 in assay [1] and in assay [3] (Plasmodium falciparum) were 1360 nM and 474 nM, respectively.

For the compound `Cc1ccc(Nc2c(-c3cccnc3)nc3n2CCCC3)cc1` [Compound 737], the values for the EC50 in assay [1] and in assay [3] (Plasmodium falciparum) were 7850 nM and 4090 nM, respectively.

With `CC(C)(C)CC(C)(C)Nc1c(C2CCCCC2)nc2ccccn12` [Compound 738], the EC50 amounted to 3240 nM in assay [1] and 1560 nM in assay [3] (Plasmodium falciparum).

`CC(C)(C)CC(C)(C)Nc1c(C(c2ccccc2)c2ccccc2)nc2ccccn12` [Compound 739]: the EC50 in assay [1] stood at 768 nM; in assay [3] (Plasmodium falciparum) it was 881 nM.

On to `CC(C)(C)CC(C)(C)Nc1c(-c2ccccc2-c2cccs2)nc2ccccn12` [Compound 741], for which the EC50 in assay [1] was 5250 nM; in assay [3] (Plasmodium falciparum) it was 4830 nM.

With `CC(C)(C)CC(C)(C)Nc1c(-c2ccccc2OC(F)F)nc2ccccn12` [Compound 742], the EC50 in assay [1] was determined as 6430 nM; in assay [3] (Plasmodium falciparum), 11600 nM.

Take `CC(C)(C)CC(C)(C)Nc1c(-c2ccccc2Br)nc2ccccn12` [Compound 743]: the EC50 in assay [1] was 2680 nM; in assay [3] (Plasmodium falciparum), 3000 nM.

Regarding `CCN(CC)CCOc1ccccc1-c1nc2ccccn2c1NC(C)(C)CC(C)(C)C` [Compound 744], the EC50 in assay [1] is 5240 nM; in assay [3] (Plasmodium falciparum), 2810 nM.

Consider `CC(C)(C)CC(C)(C)Nc1c(-c2ccccc2C(F)(F)F)nc2ccccn12` [Compound 745], for which the values for the EC50 in assay [1] and in assay [3] (Plasmodium falciparum) were 3570 nM and 4230 nM, respectively.

With `CC(C)(C)CC(C)(C)Nc1c(-c2ccccc2OCCO)nc2ccccn12` [Compound 746], the EC50 is over 10000 nM in assay [1] and 6940 nM in assay [3] (Plasmodium falciparum).

Take `CC(C)(C)CC(C)(C)Nc1c(-c2ccccc2-c2ccco2)nc2ccccn12` [Compound 747]: the EC50 worked out at 2230 nM in assay [1] and 4480 nM in assay [3] (Plasmodium falciparum).

On to `Cc1ccc(Nc2c(-c3ccc(F)cc3)nc3ccc(C)cn23)cc1` [Compound 748], for which the EC50 in assay [1] was 3440 nM; in assay [3] (Plasmodium falciparum), 4150 nM.

For the compound `Fc1ccc(-c2nc3n(c2Nc2ccc(Cl)c(F)c2)CCCC3)cc1` [Compound 749], the values for the EC50 in assay [1] and in assay [3] (Plasmodium falciparum) were 1050 nM and 814 nM, respectively.

On to `Cc1ccc(Nc2c(-c3ccc(F)cc3)nc3n2CCCC3)cc1` [Compound 750], for which the EC50 in assay [1] was found to be 4770 nM; in assay [3] (Plasmodium falciparum), 4960 nM.

Turning to `Cc1ccc(Nc2c(-c3ccc(F)cc3)nc3ccccn23)cc1` [Compound 751], the EC50 in assay [1] is 1790 nM; in assay [3] (Plasmodium falciparum), 4550 nM.

For the compound `Cc1ccc2nc(-c3ccc(F)cc3)c(Nc3ccc(Cl)c(F)c3)n2c1` [Compound 752], the EC50 in assay [1] came to 1620 nM; in assay [3] (Plasmodium falciparum) it was 2380 nM.

Regarding `Cc1ccc(Nc2c(-c3ccc(F)cc3)nc3n2CC(C)CC3)cc1` (stereo not drawn) [Compound 753], the EC50 came out at 376 nM in assay [1] and 592 nM in assay [3] (Plasmodium falciparum).

Consider `CC1CCc2nc(-c3ccc(F)cc3)c(Nc3ccc(Cl)c(F)c3)n2C1` (stereo not drawn) [Compound 754], for which the EC50 in assay [1] is 104 nM; in assay [3] (Plasmodium falciparum), 190 nM.

Consider `NCC(=O)N1CCn2c(nc(-c3ccccc3)c2Nc2ccc3c(c2)OCO3)C1` [Example 1, 2-amino-1-(3-(benzo[d][1,3]dioxol-5-ylamino)-2-phenyl-5,6-dihydroimidazo[1,2-a]pyrazin-7(8H)-yl)ethanone], for which the EC50 is 460 nM in assay [1] and 473 nM in assay [3].

For the compound `Fc1ccc(Nc2c(-c3ccc(F)cc3)nc3cnccn23)cc1` [Example 26, N,2-bis(4-fluorophenyl)imidazo[1,2-a]pyrazin-3-amine], the results for the EC50 in assay [1] and in assay [3] were over 10000 nM and 5520 nM, respectively.

For the compound `Fc1ccc(Nc2c(-c3ccc(F)cc3)nc3n2CCNC3)cc1` [Example 28, N,2-bis(4-fluorophenyl)-5,6,7,8-tetrahydroimidazo[1,2-a]pyrazin-3-amine], the EC50 in assay [1] came to 200 nM; in assay [3], 175 nM.

In the case of `CNCC(=O)N1CCn2c(nc(-c3ccc(F)cc3)c2Nc2ccc(F)cc2)C1` [Example 32, 1-(2-(4-fluorophenyl)-3-(4-fluorophenylamino)-5,6-dihydroimidazo[1,2-a]pyrazin-7(8H)-yl)-2-(methylamino)ethanone], the EC50 in assay [1] came to 210 nM; in assay [3], 219 nM.

On to `O=C(CO)N1CCn2c(nc(-c3ccc(F)cc3)c2Nc2ccc(F)cc2)C1` [Example 44, 1-(2-(4-fluorophenyl)-3-(4-fluorophenylamino)-5,6-dihydroimidazo[1,2-a]pyrazin-7(8H)-yl)-2-hydroxyethanone], for which the EC50 in assay [1] came to 720 nM; in assay [3] it was 477 nM.

Regarding `Cc1ccc(Nc2c(-c3ccc(F)cc3)nc3n2CCNC3)cc1` [Example 113, 2-(4-fluorophenyl)-N-p-tolyl-5,6,7,8-tetrahydroimidazo[1,2-a]pyrazin-3-amine], the values for the EC50 in assay [1] and in assay [3] were 150 nM and 146 nM, respectively.

For the compound `Cc1ccc(Nc2c(-c3ccc(F)cc3)nc3cnccn23)cc1` [Example 136, 2-(4-fluorophenyl)-N-p-tolylimidazo[1,2-a]pyrazin-3-amine], the results for the EC50 in assay [1] and in assay [3] were 2020 nM and 2690 nM, respectively.

Turning to `Cc1ccc(Nc2c(-c3ccc(F)cc3)nc3n2CCN(C(=O)N2CCC(N(C)C)C2)C3)cc1` (stereo not drawn) [Example 251, (3-(dimethylamino)pyrrolidin-1-yl)(2-(4-fluorophenyl)-3-(p-tolylamino)-5,6-dihydroimidazo[1,2-a]pyrazin-7(8H)-yl)methanone], the results for the EC50 in assay [1] and in assay [3] were 3680 nM and 2550 nM, respectively.

In the case of `Fc1ccc(-c2nc3n(c2Nc2ccc(Cl)cc2)CCNC3)cc1` [Example 262, N-(4-chlorophenyl)-2-(4-fluorophenyl)-5,6,7,8-tetrahydroimidazo[1,2-a]pyrazin-3-mine], the EC50 in assay [1] stood at 240 nM; in assay [3], 267 nM.

As for `Cc1ccc(Nc2c(-c3cccc(C)c3)nc3n2CCNC3)cc1` [Example 266, 2-m-tolyl-N-p-tolyl-5,6,7,8-tetrahydroimidazo[1,2-a]pyrazin-3-amine], the values for the EC50 in assay [1] and in assay [3] were 1170 nM and 1310 nM, respectively.
